From paper PMC6396489 (Cell Communication and Signaling : CCS, 2019)
“Also recorded” adds a separate entry of the source.

Columns and labels:
Shp1 = target: T1, Shp1 (Homo sapiens, UniProt P29350); assay: Isothermal titration calorimetry, Shp1 WT; assay type: binding; conditions: Ins4P 50 µM (Fig. S2)
T1 construct: the C-terminal truncated form of human Shp1 cDNA (His-Shp1; amino acids 1–529); made in house; host or cells: E. coli BL21(DE3)
T1 sequence (P29350 1-529 isoform P29350-3): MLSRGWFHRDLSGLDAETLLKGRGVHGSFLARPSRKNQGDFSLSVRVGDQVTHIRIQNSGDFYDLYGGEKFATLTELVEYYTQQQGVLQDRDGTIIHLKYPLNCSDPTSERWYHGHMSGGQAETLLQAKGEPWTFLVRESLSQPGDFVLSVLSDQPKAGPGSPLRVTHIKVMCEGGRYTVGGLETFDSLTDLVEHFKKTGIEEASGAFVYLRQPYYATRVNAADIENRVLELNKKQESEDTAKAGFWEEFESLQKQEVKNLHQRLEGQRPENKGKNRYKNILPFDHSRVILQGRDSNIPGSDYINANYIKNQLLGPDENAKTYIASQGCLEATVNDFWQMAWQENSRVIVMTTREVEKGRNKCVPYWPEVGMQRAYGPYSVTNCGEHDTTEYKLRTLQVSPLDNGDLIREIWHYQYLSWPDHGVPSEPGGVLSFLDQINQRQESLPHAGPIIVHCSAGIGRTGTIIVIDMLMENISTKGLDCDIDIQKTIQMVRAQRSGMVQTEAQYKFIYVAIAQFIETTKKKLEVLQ
Method: ITC measurements were performed by using a Nano-ITC III (TA instruments, New Castle, DE, USA) with a reaction cell volume of 1 ml kept at 25 °C. A protein solution of 10 μM was titrated into the calorimetric cell with a solution of 50–100 μM of the ligand GroPIns4P (Ins4P) in the syringe. A sequence of 16 injections of 15 μL volume was programmed with a stirring speed of 250 rpm at 500 s intervals. Protein samples were prepared with protein solutions at 25 °C in 20 mM Tris buffer pH 7.4 with 50 mM NaCl and 1 mM TCEP. To minimise the differences in buffer composition and pH between cell and syringe, both ligand and protein solutions were prepared with the same batch of buffer. The heat of dilution of the GroPIns4P into the buffer solution was measured in a separate experiment and appropriate corrections were made. The heat evolved after each ligand injection was obtained from the integral of the calorimetric signal. Raw data were integrated, corrected for non-specific heats and normalized for concentration. The equilibrium dissociation constant (KD), binding enthalpy (ΔbH) and binding stoichiometry (n) were obtained by nonlinear regression of the experimental data using a model of independent binding sites, by means of the NanoAnalyze software. Experiments were performed in duplicate.

actin cytoskeleton = tested on: actin cytoskeleton; set-up: method as in PMID 12589050; conditions: cited from earlier work
NIH3T3 cells [1] = assay: Immunofluorescence analysis for membrane ruffling; assay type: cell-based; conditions: for effect of pre-treatment on peripheral ruffles in response to GroPIns4P: with 50 μM GroPIns4P for 5 min
Method: NIH3T3 and Raw 264.7 cells were cultured in DMEM supplemented with 2 mM L-glutamine, 50 U/mL penicillin, […] streptomycin, and 10% CS or heat-inactivated FBS (30 min at 55 °C), respectively. NIH3T3 cells were transfected with different plasmids using the Lipofectamine LTX/plus reagent according to the manufacturer’s instructions. For immunofluorescence experiments, NIH3T3 cells were seeded onto glass coverslips in 24-well plates at a concentration suitable for 70% confluence without transfection or 50% confluence in the case of Lipofectamine-based cell transfection. In the latter, approximately 24 h after seeding, NIH3T3 cells were transiently transfected with different plasmids with the Lipofectamine LTX/plus reagent following the manufacturer’s instructions. Before treatments, NIH3T3 cells were serum-starved in DMEM with 2 mM glutamine, 50 U/mL penicillin and streptomycin for 16–20 h. The cells were then treated with different stimuli and/or inhibitors, as indicated in the text and/or Figure legends. Addition of exogenous GroPIns4P was at 50 μM (unless otherwise indicated), a concentration eliciting an intracellular concentration of about 1.5 μM, as calculated from the Nernst equation (with T = 300 K, z = − 3, and Veq = − 30 mV, an average value for cultured, non-excitable cells).
For ruffle assessment after treatments, immunofluorescence labelling and morphological analysis of the cells were performed as previously described in a double-blind fashion. In brief, the assessment was based on a null score (zero) for the absence of the feature, followed by a score of one or two according to the level of response of each individual cell, where one indicate that ruffling was confined to one area of the cell (< 25% of the cell circumference), and two indicate that two or more discrete areas of the cell contained ruffles. The cell phenotypes were quantified by counting 150 cells in each sample. The data were then expressed as percentage scores (±SD) for each treatment response compared with its respective control. Scoring of the control cells was performed in the same way to evaluate the presence of the features of interest in untreated cells.

NIH3T3 cells [2] = assay: Wound-healing assay; assay type: cell-based; conditions: for effect on GroPIns4P-stimulated wound closure: 50 μM GroPIns4P
Method: To perform the wound-healing assay, NIH3T3 cells were seeded in 6-well tissue culture plates to a final density of 3 × 10^5 cells/well and maintained at 37 °C and 5% CO2 for 24 h until confluence before being starved overnight in DMEM containing 1% bovine serum. The cell monolayer was wounded by scratching with a 10 μL standard sterile pipette tip. The scratched monolayer was rinsed twice with DMEM containing 1% bovine serum to remove cell debris and incubated with or without 50 μM GroPIns4P. […] In detail, the input image was processed by applying a Sobel edge detector [26], obtaining a gradient image. A threshold process was then performed on the gradient image to obtain the foreground corresponding to the wound area. Particularly, all of the pixels of the gradient image with values less than the threshold θ were assumed to be pixels of the foreground (experimentally, θ is set to 4). Finally, procedures based on morphological operations were used to remove small regions and to fill holes of the wound area to complete detection and analysis.

Compound: O=P(O)(O)OC1[C@@H](O)[C@@H](O)C(O)[C@H](O)[C@H]1O (stereo partly shown) [Ins4P, Inositol 4-phosphate, reference compound]
- binding to Shp1 by ITC (Shp1): did not indicate any specific binding; also recorded: no binding was resolved
- effect on actin cytoskeleton organisation (actin cytoskeleton): no effect

Compound: O=S(=O)(O)c1ccc2cc(N=Nc3cc(S(=O)(=O)O)c4cccnc4c3O)ccc2c1 [NSC-87877]
- effect of pre-treatment on peripheral ruffles in response to GroPIns4P (NIH3T3 cells [1]): strongly impair
- reduction of EGF-induced cell migration (NIH3T3 cells [2]; 100 μM, EGF 10 ng/ml): ~100%
- effect on GroPIns4P-stimulated wound closure (NIH3T3 cells [2]; pre-treatment 100 μM): completely abrogated

Compound: O=C1C=CC(=O)C(c2cc(Cl)ccc2Cl)=C1 [TPI-1]
- effect of pre-treatment on peripheral ruffles in response to GroPIns4P (NIH3T3 cells [1]): strongly impair
- reduction of EGF-induced cell migration (NIH3T3 cells [2]; 25 μM, EGF 10 ng/ml): 50%
- effect on GroPIns4P-stimulated wound closure (NIH3T3 cells [2]; pre-treatment 25 μM): completely abrogated

Compound: CCCCC/C=C\C/C=C\C/C=C\C/C=C\CCCC(=O)O [arachidonic acid]
- effect on EGF-induced cell motility (NIH3T3 cells [2]; 10–50 μM): did not affect
- effect when combined with the PLA2 inhibitor in EGF-stimulated cells (NIH3T3 cells [2]; EGF 10 ng/ml, cPLA2α inhibitor, arachidonic acid): minor inhibitory effect

Compound: EGF: Epidermal growth factor
- cell migration (NIH3T3 cells [2]; 10 ng/ml EGF): significant increase

Compound: PDGF
- effect of Shp1-C455S overexpression on PDGF-induced ruffles (NIH3T3 cells [1]; 10 ng/ml PDGF): not affected
- increase in ruffles versus the control (NIH3T3 cells [1]; 10 ng/ml PDGF for 5 min, positive control): 3.5–4 fold
